Experimental data from ChEMBL document CHEMBL1201862, “PubChem BioAssay data set” (2004).
Active and inactive are the calls of the source.

What was measured:
Estrogen receptor beta [1] = molecular target: T1, Estrogen receptor beta (Homo sapiens, UniProt Q92731);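 further: recombinant ER-beta bound to coactivator SRC1 peptide in presence of estradiol agonist; inhibitors block coactivator peptide binding and lower the FRET signal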
Estrogen receptor beta [2] = molecular target: T1, Estrogen receptor beta; assay: blockers of SRC-3 recruitment to ERβ – biochemical, ELISA, streptavidin-HRP readout, orthogonal assay, confirmation (AID 1060)
[3] = blockers of HIV-1 ZM109 envelope-driven cell-cell fusion – HeLa effector, CEM target cells, luciferase, cherry-pick, dose response (AID 652058); type: functional, cell-based;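 further: luciferase signal from HIV-1 Env mediated cell-cell fusion of effector and target cells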
[4] = HIV-1 AD8 envelope cell-cell fusion blockers – cherry-pick, dose response (AID 652062); type: functional, cell-based;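 further: luciferase signal from cell-cell fusion driven by HIV-1 clade B AD8 Env; potency is for inhibitors of fusion seen as a drop in luminescence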
[5] = HPDE-C7 pancreatic duct cell viability loss – fluorescence, HTS (AID 430); type: functional, cell-based; settings: Homo sapiens
[6] = molecular target: G-protein coupled receptor 55 (Homo sapiens, UniProt Q9Y2T6); assay: inhibition of LPI-stimulated GPR55 beta-arrestin translocation – imaging, U2OS, beta-arrestin-GFP, LPI agonist, primary screen (AID 2013); type: functional;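 further: antagonist potency measured as reduced agonist-driven arrestin aggregation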
[7] = viability of HCT116 lacking mutant beta-catenin – cell-based, human colon tumor, dose response (AID 1045); type: functional;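 further: HCT116 colon tumor cells with beta catenin knocked out; cells exposed to compound for 60 hours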
[8] = viability of PTEN-deleted HCT116 cells – cell-based, HCT116 PTEN knockout, dose response (AID 1047); type: functional;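 further: HCT116 colon tumor cells with PTEN knocked out; cells exposed to compound for 60 hours before readout; potency for loss of cell viability measured by luminescence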
[9] = viability loss of HPDE-C7K cells – cell-based, fluorescence, HTS, primary screen (AID 431); type: functional; settings: Homo sapiens
[10] = blockers of HIV-1 envelope-mediated cell-cell fusion – cherry-pick, dose response (AID 652057); type: functional, cell-based
[11] = off-target signal loss in HeLa-CEM21 co-culture – HeLa F-luc CTL cells, cherry-picked, counter-screen for HIV-1 Env fusion inhibitor project, dose response (AID 652040); type: functional, cell-based;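 further: potency for signal decrease marking cytotoxic or nonspecific inhibition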
Vero [12] = assay: cells; type: functional, cell-based; settings: Chlorocebus sabaeus
[13] = viability of uninfected HEp-2 cells – cell-based, HTS, cytotoxicity control for RSV inhibitor project, dose response (AID 2410); type: functional; settings: human respiratory syncytial virus
Vero [14] = assay: inhibition of WNV-induced cytopathic effect – cell-based, CPE readout (AID 1621); type: functional; settings: Chlorocebus sabaeus
[15] = molecular target: T2, Microphthalmia-associated transcription factor (Homo sapiens, UniProt O75030); assay: reducers of TRPM1 reporter luminescence, concentration series – cell-based, SK-MEL-5, cherry-picked, set 3, MITF inhibitor project, dose response (AID 493073); type: functional;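 further: SK-MEL-5 melanoma cells with luciferase driven by the MITF target TRPM1 promoter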
T2 sequence (O75030 whole entry): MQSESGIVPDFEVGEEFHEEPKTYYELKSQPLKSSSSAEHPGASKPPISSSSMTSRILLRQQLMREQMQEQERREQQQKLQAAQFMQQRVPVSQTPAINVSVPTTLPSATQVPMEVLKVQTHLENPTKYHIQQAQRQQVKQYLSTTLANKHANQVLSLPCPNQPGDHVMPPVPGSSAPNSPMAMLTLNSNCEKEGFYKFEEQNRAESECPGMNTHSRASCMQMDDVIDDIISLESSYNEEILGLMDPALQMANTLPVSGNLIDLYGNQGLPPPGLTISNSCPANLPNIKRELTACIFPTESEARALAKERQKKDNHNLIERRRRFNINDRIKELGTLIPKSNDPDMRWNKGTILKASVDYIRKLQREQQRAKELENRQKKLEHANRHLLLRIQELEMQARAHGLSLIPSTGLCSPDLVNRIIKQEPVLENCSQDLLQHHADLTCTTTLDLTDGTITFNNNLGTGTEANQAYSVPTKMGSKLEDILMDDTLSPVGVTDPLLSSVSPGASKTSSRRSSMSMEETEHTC

Vero [16] = assay: cells; type: functional; settings: Chlorocebus sabaeus
Vero [17] = assay: mammalian cell viability reduction – secondary assay, cytotoxicity control for West Nile virus antiviral project, dose response (AID 1650); type: functional; settings: Chlorocebus sabaeus
Ephrin type-A receptor 4 = Ephrin type-A receptor 4 (Mus musculus, UniProt Q03137); assay: EphA4 ligand-binding antagonists – biochemical, colorimetric, mouse EphA4, primary screen (AID 689); type: functional
[18] = HepG2 cell cytotoxicity, dose response, cytotoxicity control for non-replicating M. tuberculosis project (AID 489018); type: functional; settings: Mycobacterium tuberculosis
[19] = Vero E6 cell cytotoxicity, dose response, cytotoxicity control for non-replicating M. tuberculosis project, secondary assay (AID 492998); type: functional, VeroE6; settings: Vero C1008
[20] = fluconazole-exposed Candida albicans growth modulators – fluorescence, retest, confirmation (AID 2467); type: functional, cell-based
INS1 = assay: INS-1E survival protection against cytokine death – cell-based, luminescence, retest, dose response (AID 449756); type: functional; settings: Rattus norvegicus;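 further: cell death triggered by IL-1 beta plus TNF-alpha plus IFN-gamma mixture; protective hits raise ATP signal compared with cytokine alone wells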
[21] = THP-1 cell cytotoxicity, dose response, cytotoxicity control for non-replicating M. tuberculosis project (AID 489025); type: functional
cells = type: functional
[22] = molecular target: Heat shock protein HSP 90-alpha (Homo sapiens, UniProt P07900); type: functional, organism-based
[23] = NIH-3T3 fibroblast cytotoxicity, dose response, cytotoxicity control, cell-based, fluorescence, Alamar Blue, secondary assay (AID 2327); type: functional;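 further: NIH-3T3 mouse fibroblasts cultured with fluconazole at 8 µg/mL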
[24] = Luminescent dose response cell-based high throughput screening assay for inhibitors of the Janus kinase 2 mutant JAK2V617F. [Related pubchem assays: 1446 (Primary screen.), 1521 (Confirmation assay.), 1486 (Counter screen.)]; type: functional
Protein RecA = molecular target: T3, Protein RecA (Mycobacterium tuberculosis, UniProt P9WHJ3); assay: Fluorescence Cell-Free Homogeneous Dose Retest to Identify Inhibitors of RecA-Intein Splicing Activity. [Related pubchem assays (depositor defined):AID2097, AID2223, AID489010, AID492950]; type: functional
T3 sequence (P9WHJ3 whole entry): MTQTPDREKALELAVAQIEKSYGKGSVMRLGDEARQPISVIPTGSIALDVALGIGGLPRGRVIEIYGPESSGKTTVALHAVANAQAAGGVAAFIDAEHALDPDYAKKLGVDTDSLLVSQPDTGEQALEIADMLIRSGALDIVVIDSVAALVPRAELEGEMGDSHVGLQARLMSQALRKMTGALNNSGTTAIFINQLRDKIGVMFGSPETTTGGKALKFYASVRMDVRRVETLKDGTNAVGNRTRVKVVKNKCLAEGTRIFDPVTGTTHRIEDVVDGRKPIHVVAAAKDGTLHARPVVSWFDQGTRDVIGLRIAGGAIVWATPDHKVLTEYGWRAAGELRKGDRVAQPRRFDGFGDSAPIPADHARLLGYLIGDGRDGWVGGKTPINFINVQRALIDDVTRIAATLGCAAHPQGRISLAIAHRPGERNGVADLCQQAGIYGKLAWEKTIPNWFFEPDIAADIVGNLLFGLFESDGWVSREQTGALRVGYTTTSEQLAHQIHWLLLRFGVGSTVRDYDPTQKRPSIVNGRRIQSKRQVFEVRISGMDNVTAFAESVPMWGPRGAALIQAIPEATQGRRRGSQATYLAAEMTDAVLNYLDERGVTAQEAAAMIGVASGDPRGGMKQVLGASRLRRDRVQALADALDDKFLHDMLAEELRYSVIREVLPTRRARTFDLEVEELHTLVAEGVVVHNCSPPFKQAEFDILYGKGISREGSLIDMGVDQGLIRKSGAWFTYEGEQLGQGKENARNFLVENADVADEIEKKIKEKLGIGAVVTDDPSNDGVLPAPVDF

Leucine aminopeptidase = molecular target: T4, Leucine aminopeptidase (Plasmodium falciparum 3D7, UniProt Q8IL11); assay: P. falciparum M17LAP inhibitors, primary screen, biochemical, fluorogenic H-Leu-NHMec substrate, 1536-well (AID 1619); type: functional
T4 sequence (Q8IL11 whole entry): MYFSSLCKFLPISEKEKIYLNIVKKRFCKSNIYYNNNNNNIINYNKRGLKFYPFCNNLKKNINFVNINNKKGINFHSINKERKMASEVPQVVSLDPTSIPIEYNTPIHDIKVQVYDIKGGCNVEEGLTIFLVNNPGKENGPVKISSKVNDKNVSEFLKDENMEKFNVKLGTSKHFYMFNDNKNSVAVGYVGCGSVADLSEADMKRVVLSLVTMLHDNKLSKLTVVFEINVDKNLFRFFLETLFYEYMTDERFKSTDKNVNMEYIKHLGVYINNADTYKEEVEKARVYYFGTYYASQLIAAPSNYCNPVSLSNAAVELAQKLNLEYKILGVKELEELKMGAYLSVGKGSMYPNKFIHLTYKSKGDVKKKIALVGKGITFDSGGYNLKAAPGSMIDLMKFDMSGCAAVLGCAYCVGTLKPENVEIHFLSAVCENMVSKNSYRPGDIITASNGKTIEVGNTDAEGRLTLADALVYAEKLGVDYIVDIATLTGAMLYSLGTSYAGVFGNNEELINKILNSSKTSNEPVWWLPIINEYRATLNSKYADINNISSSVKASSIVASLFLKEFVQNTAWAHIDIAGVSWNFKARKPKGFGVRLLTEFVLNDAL

Procathepsin L = Procathepsin L (Homo sapiens, UniProt P07711); assay: CTSL1 protease inhibition – biochemical, QFRET, 1536-well, counter-screen for M1/M17 aminopeptidase inhibitor project, dose response (AID 2214)
[25] = molecular target: T5, Replicative DNA helicase DnaB (Mycobacterium tuberculosis, UniProt P9WMR3); assay: DnaB intein splicing inhibitors, dose response, biochemical, cell-free fluorescence (AID 449749); type: functional
T5 sequence (P9WMR3 whole entry): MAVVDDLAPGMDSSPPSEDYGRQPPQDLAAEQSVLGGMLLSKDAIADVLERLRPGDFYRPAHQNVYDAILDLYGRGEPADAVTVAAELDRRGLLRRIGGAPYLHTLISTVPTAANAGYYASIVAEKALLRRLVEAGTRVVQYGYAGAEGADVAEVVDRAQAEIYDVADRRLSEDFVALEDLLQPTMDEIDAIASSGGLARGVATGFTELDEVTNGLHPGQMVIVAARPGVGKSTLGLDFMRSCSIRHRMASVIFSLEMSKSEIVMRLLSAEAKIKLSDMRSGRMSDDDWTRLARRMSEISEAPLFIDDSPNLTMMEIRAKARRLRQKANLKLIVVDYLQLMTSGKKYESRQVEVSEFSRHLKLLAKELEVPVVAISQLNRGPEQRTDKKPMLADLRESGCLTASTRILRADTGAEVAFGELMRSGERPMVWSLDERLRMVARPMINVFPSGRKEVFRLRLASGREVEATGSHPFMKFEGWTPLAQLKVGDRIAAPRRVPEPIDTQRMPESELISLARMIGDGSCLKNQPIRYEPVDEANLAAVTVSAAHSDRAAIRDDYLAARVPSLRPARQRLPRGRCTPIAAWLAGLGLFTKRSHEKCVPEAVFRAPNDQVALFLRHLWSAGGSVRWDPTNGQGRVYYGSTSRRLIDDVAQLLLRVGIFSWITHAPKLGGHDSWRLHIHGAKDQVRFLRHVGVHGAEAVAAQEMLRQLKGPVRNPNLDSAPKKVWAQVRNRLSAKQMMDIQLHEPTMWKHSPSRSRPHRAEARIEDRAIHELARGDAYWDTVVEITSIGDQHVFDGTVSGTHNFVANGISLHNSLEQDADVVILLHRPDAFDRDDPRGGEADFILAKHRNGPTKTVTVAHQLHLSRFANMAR

Aspartyl aminopeptidase = Aspartyl aminopeptidase (Plasmodium falciparum 3D7, UniProt Q8I2J3); assay: Counterscreen for inhibitors of M1 and M17 aminopeptidases: QFRET-based biochemical high throughput dose response assay for inhibitors of the Plasmodium falciparum M18 Aspartyl Aminopeptidase (PFM18AAP). [Related PubChem assays: 1619 (Screening assay (M17LAP inhibitors).), 1445 (Screening assay (M1AAP inhibitors).)]
[26] = molecular target: Serine/threonine-protein phosphatase PP1-alpha catalytic subunit (Homo sapiens, UniProt P62136); assay: inhibition of protein phosphatase 1 activity – biochemical, fluorescence, dose response (AID 2394)
[27] = molecular target: Serine/threonine-protein phosphatase (Homo sapiens, UniProt Q9BPW0); assay: inhibition of protein phosphatase 5 activity – biochemical, fluorescence, dose response (AID 2395)
[28] = molecular target: Protein-tyrosine kinase 2-beta (Homo sapiens, UniProt Q14289);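 further: potency of inhibitors of PYK2 kinase phosphorylation of poly-GT substrate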
Large T antigen = Large T antigen (Simian virus 40, UniProt P03070); type: functional, Betapolyomavirus macacae;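 further: Confirmatory-stage PubChem screen for compounds that inhibit SV40 T antigen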
NADPH oxidase 1 = NADPH oxidase 1 (Homo sapiens, UniProt Q9Y5S8); assay: Late-stage luminescence-based cell-based dose response assay to identify inhibitors of NADPH oxidase 1 (NOX1): Purchased analogs 2.; type: functional
Sequence of NADPH oxidase 1 (Q9Y5S8 whole entry): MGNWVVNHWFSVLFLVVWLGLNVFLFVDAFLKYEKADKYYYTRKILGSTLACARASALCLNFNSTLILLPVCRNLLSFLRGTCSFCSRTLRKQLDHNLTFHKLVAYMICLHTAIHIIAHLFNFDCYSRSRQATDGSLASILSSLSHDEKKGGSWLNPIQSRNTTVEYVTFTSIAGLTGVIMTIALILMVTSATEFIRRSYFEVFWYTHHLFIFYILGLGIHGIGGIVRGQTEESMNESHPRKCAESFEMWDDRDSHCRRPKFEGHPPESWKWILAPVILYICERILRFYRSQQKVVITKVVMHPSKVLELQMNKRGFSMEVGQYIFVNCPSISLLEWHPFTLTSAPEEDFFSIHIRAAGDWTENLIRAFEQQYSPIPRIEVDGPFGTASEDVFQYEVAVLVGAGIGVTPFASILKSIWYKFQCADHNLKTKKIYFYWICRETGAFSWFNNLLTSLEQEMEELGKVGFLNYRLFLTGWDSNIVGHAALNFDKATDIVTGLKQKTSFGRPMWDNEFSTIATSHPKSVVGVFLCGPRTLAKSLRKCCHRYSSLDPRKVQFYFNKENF

T1 sequence (Q92731 whole entry): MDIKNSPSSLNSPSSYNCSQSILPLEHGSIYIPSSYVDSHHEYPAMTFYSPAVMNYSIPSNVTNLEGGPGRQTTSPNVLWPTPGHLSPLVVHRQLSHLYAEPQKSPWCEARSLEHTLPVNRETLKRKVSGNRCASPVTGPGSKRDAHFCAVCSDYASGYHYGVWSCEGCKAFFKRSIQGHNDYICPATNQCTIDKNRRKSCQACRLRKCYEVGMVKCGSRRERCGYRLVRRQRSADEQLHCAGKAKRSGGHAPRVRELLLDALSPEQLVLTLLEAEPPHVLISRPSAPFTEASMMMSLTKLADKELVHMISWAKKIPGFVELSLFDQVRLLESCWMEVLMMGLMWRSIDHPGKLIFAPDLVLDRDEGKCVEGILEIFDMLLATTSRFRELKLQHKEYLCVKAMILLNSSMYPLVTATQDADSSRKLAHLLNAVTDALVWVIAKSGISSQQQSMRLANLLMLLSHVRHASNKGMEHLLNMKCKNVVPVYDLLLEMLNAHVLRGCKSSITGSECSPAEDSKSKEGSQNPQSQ
Sequence of Ephrin type-A receptor 4 (Q03137 whole entry): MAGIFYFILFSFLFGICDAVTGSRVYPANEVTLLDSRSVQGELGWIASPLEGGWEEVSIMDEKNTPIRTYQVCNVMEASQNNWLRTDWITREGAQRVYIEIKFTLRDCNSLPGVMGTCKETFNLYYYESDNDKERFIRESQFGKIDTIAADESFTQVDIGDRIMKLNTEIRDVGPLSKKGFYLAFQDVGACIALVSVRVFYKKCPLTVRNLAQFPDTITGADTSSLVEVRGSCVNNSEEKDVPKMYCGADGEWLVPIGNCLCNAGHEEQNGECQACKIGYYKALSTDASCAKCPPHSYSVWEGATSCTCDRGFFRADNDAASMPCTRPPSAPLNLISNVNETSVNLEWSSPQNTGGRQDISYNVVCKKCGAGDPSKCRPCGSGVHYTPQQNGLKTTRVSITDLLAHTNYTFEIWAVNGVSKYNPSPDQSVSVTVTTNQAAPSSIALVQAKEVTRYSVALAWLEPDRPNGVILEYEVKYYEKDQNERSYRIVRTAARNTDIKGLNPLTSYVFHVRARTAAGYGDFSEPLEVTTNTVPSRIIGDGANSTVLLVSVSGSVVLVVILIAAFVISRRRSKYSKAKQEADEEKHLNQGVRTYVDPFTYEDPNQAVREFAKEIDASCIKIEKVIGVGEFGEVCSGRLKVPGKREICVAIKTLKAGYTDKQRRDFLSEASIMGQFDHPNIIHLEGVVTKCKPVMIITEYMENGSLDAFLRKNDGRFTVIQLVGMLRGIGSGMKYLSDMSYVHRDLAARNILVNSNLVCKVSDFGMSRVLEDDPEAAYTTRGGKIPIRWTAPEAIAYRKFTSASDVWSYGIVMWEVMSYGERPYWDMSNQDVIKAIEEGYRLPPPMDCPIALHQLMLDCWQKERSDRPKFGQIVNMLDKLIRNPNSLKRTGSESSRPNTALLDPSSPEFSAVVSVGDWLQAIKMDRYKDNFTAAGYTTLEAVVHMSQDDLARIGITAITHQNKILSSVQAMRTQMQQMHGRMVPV
Sequence of Aspartyl aminopeptidase (Q8I2J3 whole entry): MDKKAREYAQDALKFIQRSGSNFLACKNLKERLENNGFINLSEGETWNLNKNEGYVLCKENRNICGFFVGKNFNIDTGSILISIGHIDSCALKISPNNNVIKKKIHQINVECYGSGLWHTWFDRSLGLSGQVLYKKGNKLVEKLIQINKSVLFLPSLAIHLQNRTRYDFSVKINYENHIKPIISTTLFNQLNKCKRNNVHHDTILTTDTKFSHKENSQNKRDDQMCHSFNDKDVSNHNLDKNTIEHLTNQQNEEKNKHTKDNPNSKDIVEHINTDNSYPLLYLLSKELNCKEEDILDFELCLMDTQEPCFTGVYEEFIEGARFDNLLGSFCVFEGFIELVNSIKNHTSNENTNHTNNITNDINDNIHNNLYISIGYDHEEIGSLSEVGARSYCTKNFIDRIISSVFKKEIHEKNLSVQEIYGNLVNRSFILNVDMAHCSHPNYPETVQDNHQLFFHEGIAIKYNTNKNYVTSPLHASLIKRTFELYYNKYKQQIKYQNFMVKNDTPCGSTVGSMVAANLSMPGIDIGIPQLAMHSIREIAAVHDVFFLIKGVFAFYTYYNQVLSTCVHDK
Sequence of Serine/threonine-protein phosphatase (Q9BPW0 whole entry): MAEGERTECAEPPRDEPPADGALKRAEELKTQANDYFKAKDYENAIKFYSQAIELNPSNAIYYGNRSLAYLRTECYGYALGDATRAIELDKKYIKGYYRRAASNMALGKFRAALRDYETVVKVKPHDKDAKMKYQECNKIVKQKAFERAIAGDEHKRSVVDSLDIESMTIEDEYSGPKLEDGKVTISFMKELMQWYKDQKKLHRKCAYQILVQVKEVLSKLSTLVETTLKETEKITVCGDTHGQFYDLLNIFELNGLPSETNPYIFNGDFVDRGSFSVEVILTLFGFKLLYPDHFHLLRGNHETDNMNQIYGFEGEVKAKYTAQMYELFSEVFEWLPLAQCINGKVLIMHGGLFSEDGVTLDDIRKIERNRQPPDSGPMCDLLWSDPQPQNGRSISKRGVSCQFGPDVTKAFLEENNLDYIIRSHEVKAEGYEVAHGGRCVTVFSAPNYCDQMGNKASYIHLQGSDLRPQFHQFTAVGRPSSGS
Sequence of Serine/threonine-protein phosphatase PP1-alpha catalytic subunit (P62136 whole entry): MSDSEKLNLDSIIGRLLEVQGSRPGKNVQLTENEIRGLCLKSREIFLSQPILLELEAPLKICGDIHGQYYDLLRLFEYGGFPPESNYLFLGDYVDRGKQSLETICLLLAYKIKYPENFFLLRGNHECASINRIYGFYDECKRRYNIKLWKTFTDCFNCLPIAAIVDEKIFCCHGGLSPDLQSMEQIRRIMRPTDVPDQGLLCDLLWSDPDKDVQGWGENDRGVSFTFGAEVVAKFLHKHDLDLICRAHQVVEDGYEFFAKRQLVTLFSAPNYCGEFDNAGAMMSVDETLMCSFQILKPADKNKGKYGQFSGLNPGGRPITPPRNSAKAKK
Sequence of Procathepsin L (P07711 whole entry): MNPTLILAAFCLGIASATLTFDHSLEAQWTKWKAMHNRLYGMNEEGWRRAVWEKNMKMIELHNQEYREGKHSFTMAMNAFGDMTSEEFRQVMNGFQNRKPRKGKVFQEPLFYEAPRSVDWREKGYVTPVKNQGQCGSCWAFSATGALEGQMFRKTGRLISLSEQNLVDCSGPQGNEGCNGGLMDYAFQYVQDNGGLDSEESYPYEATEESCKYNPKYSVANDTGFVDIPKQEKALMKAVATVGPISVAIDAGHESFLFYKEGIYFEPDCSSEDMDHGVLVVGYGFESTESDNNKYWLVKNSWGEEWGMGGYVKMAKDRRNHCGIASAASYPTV
Sequence of Large T antigen (P03070 whole entry): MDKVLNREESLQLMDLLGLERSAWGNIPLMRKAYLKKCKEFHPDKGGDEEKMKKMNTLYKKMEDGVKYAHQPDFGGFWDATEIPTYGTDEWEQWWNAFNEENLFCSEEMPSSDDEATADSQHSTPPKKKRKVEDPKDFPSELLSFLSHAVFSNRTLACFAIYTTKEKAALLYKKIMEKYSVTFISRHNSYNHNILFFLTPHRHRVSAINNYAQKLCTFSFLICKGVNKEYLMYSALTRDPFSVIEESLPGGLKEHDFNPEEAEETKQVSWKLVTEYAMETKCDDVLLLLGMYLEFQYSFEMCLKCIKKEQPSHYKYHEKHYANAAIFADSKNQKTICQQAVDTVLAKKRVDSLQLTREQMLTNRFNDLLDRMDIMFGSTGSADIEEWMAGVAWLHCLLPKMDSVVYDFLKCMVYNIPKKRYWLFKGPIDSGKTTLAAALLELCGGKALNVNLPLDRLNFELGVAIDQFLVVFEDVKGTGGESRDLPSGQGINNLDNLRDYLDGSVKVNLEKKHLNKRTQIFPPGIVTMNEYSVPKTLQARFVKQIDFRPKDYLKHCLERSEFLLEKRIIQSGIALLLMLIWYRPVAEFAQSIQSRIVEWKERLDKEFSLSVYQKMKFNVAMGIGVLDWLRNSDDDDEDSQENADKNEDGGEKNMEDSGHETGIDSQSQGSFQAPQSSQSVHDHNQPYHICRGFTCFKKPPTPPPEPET
Sequence of G-protein coupled receptor 55 (Q9Y2T6 whole entry): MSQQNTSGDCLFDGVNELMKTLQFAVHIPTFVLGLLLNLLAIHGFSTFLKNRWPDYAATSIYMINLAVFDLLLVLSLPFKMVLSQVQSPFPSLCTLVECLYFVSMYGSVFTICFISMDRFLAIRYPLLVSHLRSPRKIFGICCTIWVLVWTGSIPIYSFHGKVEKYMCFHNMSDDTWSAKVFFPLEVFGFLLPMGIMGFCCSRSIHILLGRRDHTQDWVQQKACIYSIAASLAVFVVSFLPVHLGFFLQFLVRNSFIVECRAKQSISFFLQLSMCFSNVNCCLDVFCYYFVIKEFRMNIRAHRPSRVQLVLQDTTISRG

CC1CCCCN1CC(=O)Nc1sc2c(c1C#N)CCC2 (stereo not drawn)
IC50 (Estrogen receptor beta [1]): > 50 µM (not active) | IC50 (Estrogen receptor beta [2]): > 50 µM (not active)

COc1ccc(CCN2C(=O)c3[nH]nc(-c4ccccc4O)c3C2c2ccc(C)cc2)cc1OC (stereo not drawn)
AC50 [3]: 2.58 µM (active) | AC50 [4]: 6.57 µM (active) | EC50 [5]: 8.11 µM (active) | IC50 [6]: 2.9 µM (active) | EC50 [7]: 21.6 µM (active) | EC50 [8]: 21.1 µM (active) | EC50 [9]: 9.9 µM (active) | AC50 [10]: 2.11 µM (active) | AC50 [11]: 3.34 µM (active)

NCCCNc1nc(N)c([N+](=O)[O-])c(NC2CCCCC2)n1
IC50 (Vero [12]): 6 µM (active) | CC50 [13]: 18.2 µM (active) | IC50 (Vero [14]): 8.89 µM (active) | AC50 [15]: 6.36 µM (active) | CC50 (Vero [16]): 11.6 µM (active) | CC50 (Vero [17]): 13.4 µM (active)

Cc1cc(C=C2C(=O)N(C)C(=S)N(C)C2=O)c(C)n1C1CCCCC1
IC50 (Ephrin type-A receptor 4): 5.14 µM (active)

COc1cccc(F)c1C(C[N+](=O)[O-])c1c(N)n(C)c(=O)n(C)c1=O (stereo not drawn)
CC50 [18]: 16.2 µM (active) | CC50 [19]: 4.73 µM (active) | EC50 [20]: 779 nM (active) | AC50 (INS1): 7.85 µM (active) | CC50 (Vero [16]): 8.24 µM (active) | CC50 [21]: 7.28 µM (active) | IC50 (cells): 5.94 µM (active) | AC50 [22]: 3.91 µM (active) | EC50 [23]: 5.27 µM (active) | IC50 [24]: 1.06 µM (active)

O=[N+]([O-])c1cccc(-c2cc(O)n[nH]2)c1
EC50 (Protein RecA): 2.57 µM (active) | IC50 (Leucine aminopeptidase): 6.99 µM (active) | IC50 (Procathepsin L): > 59.6 µM (not active) | AC50 [25]: 7.14 µM (active) | IC50 (Aspartyl aminopeptidase): > 73.5 µM (not active)

COc1ccc(Cn2c(N)c(C(=O)NCc3ccco3)c3nc4ccccc4nc32)cc1OC
IC50 [26]: > 67 µM (not active) | IC50 [27]: 46.5 µM (not active)

CCc1ccc2nc3n[nH]c(N)c3cc2c1
IC50 [28]: 24.9 µM (not active) | IC50 (Large T antigen): 13.5 µM (active)

Fc1nc(F)c(F)c(N/N=C/c2ccc(Br)cc2)c1F
IC50 (NADPH oxidase 1): > 17 µM (not active)
